ChEMBL document CHEMBL1201862, “PubChem BioAssay data set” (2004)
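Exposure lasted 48 hours, with cells grown in 96-well plates and compounds tested at five concentrations. At the GI50, growth is halved.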 Calls of active or inactive are those of the source. Cut-off read from the data, not from the text of the source: active = GI50 up to about 1.1 µM and inactive = higher.

Legend:
Assay in all cases: growth of human tumour cells (NCI), 48 h
[1] = test system: HOP-62
[2] = test system: COLO 205
[3] = test system: 786-0
[4] = test system: NCI-H23
[5] = test system: IGROV-1
[6] = test system: SF-295
[7] = test system: SNB-19
[8] = test system: NCI/ADR-RES
[9] = test system: U-251
[10] = test system: SK-MEL-2
[11] = test system: UACC-62
[12] = test system: HCT-116
[13] = test system: HCC 2998
[14] = test system: SF-268
[15] = test system: PC-3
[16] = test system: SK-MEL-28
[17] = test system: OVCAR-3
[18] = test system: NCI-H522
[19] = test system: RPMI-8226
[20] = test system: M14
[21] = test system: RXF 393
[22] = test system: Hs-578T
[23] = test system: SK-OV-3
[24] = test system: HT-29
[25] = test system: OVCAR-8
[26] = test system: OVCAR-5
[27] = test system: LOX IMVI
[28] = test system: MCF7
[29] = test system: DU-145
[30] = test system: EKVX
[31] = test system: Malme-3M
[32] = test system: CAKI-1
[33] = test system: MOLT-4
[34] = test system: KM12
[35] = test system: MDA-N
[36] = test system: UO-31
[37] = test system: BT-549
[38] = test system: NCI-H226
[39] = test system: MDA-MB-435
[40] = test system: SN12C
[41] = test system: A498
[42] = test system: SNB-75
[43] = test system: ACHN
[44] = test system: UACC-257
[45] = test system: T47D
[46] = test system: K562
[47] = test system: SR
[48] = test system: SF-539
[49] = test system: SK-MEL-5
[50] = test system: HOP-92
[51] = test system: A549
[52] = test system: CCRF-CEM
[53] = test system: HCT-15
[54] = test system: MDA-MB-231
[55] = test system: OVCAR-4
[56] = test system: SW-620
[57] = test system: TK-10
[58] = test system: NCI-H460
[59] = test system: HL-60
[60] = test system: DMS-114
[61] = test system: DLD-1
[62] = test system: M19-MEL
[63] = test system: SNB-78
[64] = test system: DMS-273
[65] = test system: LXFL 529
[66] = test system: XF498
[67] = test system: KM-20L2

What does the source list for `OC(COc1cccc2ccccc12)CN1CCOCC1` (stereo unspecified)?
GI50 [1]: > 100 µM (inactive); GI50 [2]: > 100 µM (inactive); GI50 [3]: > 100 µM (inactive); GI50 [4]: > 100 µM (inactive); GI50 [5]: 39.9 µM (inactive); GI50 [6]: > 100 µM (inactive); GI50 [7]: > 100 µM (inactive); GI50 [8]: > 100 µM (inactive); GI50 [9]: > 100 µM (inactive); GI50 [10]: > 100 µM (inactive); GI50 [11]: > 100 µM (inactive); GI50 [12]: > 100 µM (inactive); GI50 [13]: > 100 µM (inactive); GI50 [14]: > 100 µM (inactive); GI50 [15]: > 100 µM (inactive); GI50 [16]: > 100 µM (inactive); GI50 [17]: > 100 µM (inactive); GI50 [18]: 54 µM (inactive); GI50 [19]: > 100 µM (inactive); GI50 [20]: > 100 µM (inactive); GI50 [21]: > 100 µM (inactive); GI50 [22]: 75.5 µM (inactive); GI50 [23]: > 100 µM (inactive); GI50 [24]: > 100 µM (inactive); GI50 [25]: > 100 µM (inactive); GI50 [26]: > 100 µM (inactive); GI50 [27]: > 100 µM (inactive); GI50 [28]: > 100 µM (inactive); GI50 [29]: > 100 µM (inactive); GI50 [30]: 95.1 µM (inactive); GI50 [31]: > 100 µM (inactive); GI50 [32]: > 100 µM (inactive); GI50 [33]: 44.6 µM (inactive); GI50 [34]: > 100 µM (inactive); GI50 [35]: > 100 µM (inactive); GI50 [36]: > 100 µM (inactive); GI50 [37]: > 100 µM (inactive); GI50 [38]: > 100 µM (inactive); GI50 [39]: > 100 µM (inactive); GI50 [40]: > 100 µM (inactive); GI50 [41]: > 100 µM (inactive); GI50 [42]: > 100 µM (inactive); GI50 [43]: > 100 µM (inactive); GI50 [44]: > 100 µM (inactive); GI50 [45]: > 100 µM (inactive); GI50 [46]: > 100 µM (inactive); GI50 [47]: > 100 µM (inactive); GI50 [48]: > 100 µM (inactive); GI50 [49]: > 100 µM (inactive); GI50 [50]: 22.2 µM (inactive); GI50 [51]: > 100 µM (inactive); GI50 [52]: > 100 µM (inactive); GI50 [53]: > 100 µM; GI50 [54]: > 100 µM (inactive); GI50 [55]: > 100 µM (inactive); GI50 [56]: > 100 µM (inactive); GI50 [57]: > 100 µM (inactive); GI50 [58]: > 100 µM (inactive); GI50 [59]: > 100 µM (inactive)

Which results are given for `CCCNC1CC(n2cc(C)c(=O)[nH]c2=O)OC1CO` (stereo unspecified)?
GI50 [1]: > 100 µM (inactive); GI50 [2]: > 100 µM (inactive); GI50 [3]: > 100 µM (inactive); GI50 [4]: > 100 µM (inactive); GI50 [5]: > 100 µM (inactive); GI50 [60]: > 100 µM (inactive); GI50 [61]: > 100 µM (inactive); GI50 [10]: > 100 µM (inactive); GI50 [11]: > 100 µM (inactive); GI50 [12]: > 100 µM (inactive); GI50 [13]: > 100 µM (inactive); GI50 [14]: > 100 µM (inactive); GI50 [16]: > 100 µM (inactive); GI50 [18]: > 100 µM (inactive); GI50 [19]: > 100 µM (inactive); GI50 [20]: > 100 µM (inactive); GI50 [62]: > 100 µM (inactive); GI50 [23]: > 100 µM (inactive); GI50 [63]: > 100 µM (inactive); GI50 [64]: > 100 µM (inactive); GI50 [31]: > 100 µM (inactive); GI50 [32]: > 100 µM (inactive); GI50 [33]: > 100 µM (inactive); GI50 [36]: > 100 µM (inactive); GI50 [38]: > 100 µM (inactive); GI50 [40]: > 100 µM (inactive); GI50 [42]: > 100 µM (inactive); GI50 [65]: > 100 µM (inactive); GI50 [43]: > 100 µM (inactive); GI50 [46]: > 100 µM (inactive); GI50 [47]: > 100 µM (inactive); GI50 [48]: > 100 µM (inactive); GI50 [50]: > 100 µM (inactive); GI50 [52]: > 100 µM (inactive); GI50 [55]: > 100 µM (inactive); GI50 [58]: > 100 µM (inactive); GI50 [59]: > 100 µM (inactive)

What does the source list for `COC1CC(n2cnc3c(N)ncnc32)OC1CO` (stereo unspecified)?
GI50 [1]: > 100 µM (inactive); GI50 [2]: > 100 µM (inactive); GI50 [3]: > 100 µM (inactive); GI50 [4]: 81.5 µM (inactive); GI50 [5]: > 100 µM (inactive); GI50 [6]: > 100 µM (inactive); GI50 [60]: > 100 µM (inactive); GI50 [7]: > 100 µM (inactive); GI50 [61]: > 100 µM (inactive); GI50 [9]: > 100 µM (inactive); GI50 [10]: > 100 µM (inactive); GI50 [11]: > 100 µM (inactive); GI50 [12]: > 100 µM (inactive); GI50 [13]: > 100 µM (inactive); GI50 [14]: > 100 µM (inactive); GI50 [16]: > 100 µM (inactive); GI50 [17]: > 100 µM (inactive); GI50 [66]: > 100 µM (inactive); GI50 [18]: > 100 µM (inactive); GI50 [19]: > 100 µM (inactive); GI50 [20]: > 100 µM (inactive); GI50 [62]: > 100 µM (inactive); GI50 [24]: > 100 µM (inactive); GI50 [25]: > 100 µM (inactive); GI50 [26]: > 100 µM (inactive); GI50 [64]: > 100 µM (inactive); GI50 [31]: > 100 µM (inactive); GI50 [32]: > 100 µM (inactive); GI50 [33]: > 100 µM (inactive); GI50 [34]: > 100 µM (inactive); GI50 [36]: > 100 µM (inactive); GI50 [38]: > 100 µM (inactive); GI50 [42]: > 100 µM (inactive); GI50 [65]: > 100 µM (inactive); GI50 [43]: > 100 µM (inactive); GI50 [44]: > 100 µM (inactive); GI50 [46]: > 100 µM (inactive); GI50 [47]: > 100 µM (inactive); GI50 [48]: > 100 µM (inactive); GI50 [49]: > 100 µM (inactive); GI50 [50]: > 100 µM (inactive); GI50 [51]: > 100 µM (inactive); GI50 [52]: 56 µM (inactive); GI50 [53]: > 100 µM; GI50 [55]: > 100 µM (inactive); GI50 [56]: > 100 µM (inactive); GI50 [57]: > 100 µM (inactive); GI50 [58]: > 100 µM (inactive); GI50 [59]: > 100 µM (inactive); GI50 [67]: > 100 µM (inactive)
